Experimental data reported in patent publication US7153958B2, “Farnesyl transferase inhibiting benzoheterocyclic derivatives” (Janssen Pharmaceutica N.V., priority 2000, dated 2006).

melting point [°C] | Compound
213 | CN1C(=O)CN=C(c2cccc(Cl)c2)c2cc(C(N)(c3ccc(Cl)cc3)c3cncn3C)ccc21 (stereo not drawn)
218 | CN1C(=O)CSC(c2cccc(Cl)c2)c2cc(C(N)(c3ccc(Cl)cc3)c3cncn3C)ccc21 (stereo not drawn)
218 | Cn1cncc1C(N)(c1ccc(Cl)cc1)c1ccc2c(c1)C(c1cccc(Cl)c1)=NCc1nnnn1-2 (stereo not drawn)
187 | Cn1cncc1C(c1ccc(Cl)cc1)c1ccc2c(c1)C(c1cccc(Cl)c1)SCC(=O)N2 (stereo not drawn)
217 | Cn1cncc1C(O)(c1ccc(Cl)cc1)c1ccc2c(c1)C(c1cccc(Cl)c1)SCc1nnnn1-2 (stereo not drawn)
162 | Cn1cncc1C(c1ccc(Cl)cc1)c1ccc2c(c1)C(c1cccc(Cl)c1)SCc1nnnn1-2 (stereo not drawn)
199 | Cn1cncc1C(c1ccc(Cl)cc1)c1ccc2c(c1)C(c1cccc(Cl)c1)SCCC(=O)N2 (stereo not drawn)
210 | Cn1cncc1C(O)(c1ccc(Cl)cc1)c1ccc2c(c1)C(c1cccc(Cl)c1)SCC(=O)N2 (stereo not drawn)
245 | Cn1cncc1C(O)(c1ccc(Cl)cc1)c1ccc2c(c1)C(c1cccc(Cl)c1)SCC(=O)N2CC1CC1 (stereo not drawn)
200 | Cn1cncc1C(O)(c1ccc(Cl)cc1)c1ccc2c(c1)C(c1cccc(Cl)c1)=NCC(=O)N2 (stereo not drawn)
186 | CN1C(=O)CSC(c2cccc(Cl)c2)c2cc(C(O)(c3ccc(Cl)cc3)c3cncn3C)ccc21 (stereo not drawn)
226 | CN1C(=O)CN=C(c2cccc(Cl)c2)c2cc(C(O)(c3ccc(Cl)cc3)c3cncn3C)ccc21 (stereo not drawn)
240 | Cn1cncc1C(O)(c1ccc(Cl)cc1)c1ccc2c(c1)C(c1cccc(Cl)c1)=NCc1nnnn1-2 (stereo not drawn)
144 | O=C1CN=C(c2ccccc2)c2cc(C(c3ccc(Cl)cc3)n3ccnc3)ccc2N1 (racemic)
260 | Cn1cncc1C(O)(c1ccc(Cl)cc1)c1ccc2c(c1)C(c1cccc(Cl)c1)OCC(=O)N2 (stereo not drawn) [Example B1, 5-(3-chlorophenyl)-7-[(4-chlorophenyl)hydroxy(1-methyl-1H-imidazol-5-yl)methyl]-1,5-dihydro-4,1-benzoxazepin-2(3H)-one]
160 | CN1C(=O)COC(c2cccc(Cl)c2)c2cc(C(O)(c3ccc(Cl)cc3)c3cncn3C)ccc21 (stereo not drawn) [Example B3, 5-(3-chlorophenyl)-7-[(4-chlorophenyl)hydroxy(1-methyl-1H-imidazol-5-yl)methyl]-1,5-dihydro-1-methyl-4,1-benzoxazepin-2(3H)-one]
208 | CN1C(=O)CNC(c2cccc(Cl)c2)c2cc(C(O)(c3ccc(Cl)cc3)c3cncn3C)ccc21 (stereo not drawn) [Example B5, 5-(3-chlorophenyl)-7-[(4-chlorophenyl)hydroxy(1-methyl-1H-imidazol-5-yl)methyl]-1,3,4,5-tetrahydro-1-methyl-2H-1,4-benzodiazepin-2-one]
> 300 | Cn1cncc1C(O)(c1ccc(Cl)cc1)c1ccc2c(c1)C(c1cccc(Cl)c1)OCC(=S)N2 (stereo not drawn) [Example B7, 5-(3-chlorophenyl)-7-[(4-chlorophenyl)hydroxy(1-methyl-1H-imidazol-5-yl)methyl]-1,5-dihydro-4,1-benzoxazepine-2(3H)-thione]
